From ChEMBL document CHEMBL3885881, “DrugMatrix”

Species: Rattus norvegicus
Format: toxicity, organism-based, Sprague-Dawley
Conditions: in vivo, 24 h, time 1 day; for ABSOLUTE EOSINOPHIL / ABSOLUTE LYMPHOCYTE / ABSOLUTE MONOCYTE / ABSOLUTE SEGMENTED NEUTROPHIL / BASOPHIL / EOSINOPHIL / ERYTHROCYTE COUNT / HEMATOCRIT / HEMOGLOBIN / LEUKOCYTE COUNT / LYMPHOCYTE / MEAN CORPUSCULAR HEMOGLOBIN / MEAN CORPUSCULAR HEMOGLOBIN CONCENTRATION / MEAN CORPUSCULAR VOLUME / MONOCYTE / NEUTROPHIL / NUCLEATED RED BLOOD CELLS / PLATELET COUNT: tissue Blood; for ALANINE AMINOTRANSFERASE / ALBUMIN / ALKALINE PHOSPHATASE / ASPARTATE AMINOTRANSFERASE / BLOOD UREA NITROGEN / CARBON DIOXIDE / CHLORIDE / CHOLESTEROL / CREATININE / GLUCOSE / LACTATE DEHYDROGENASE / LIPASE / PHOSPHORUS / POTASSIUM / SODIUM / TOTAL BILIRUBIN / TOTAL PROTEIN / URIC ACID: tissue Plasma
[1] = po, 0 mg/kg, vehicle control, route oral GAVAGE, dose level Control, vehicle .5 % CMC
[2] = po, 430 mg/kg, route oral GAVAGE, dose level High, vehicle .5 % CMC
[3] = sc, 0 mg/kg, vehicle control, route mini-PUMP - SUBCUTANEOUS, dose level Control, vehicle 100 % SALINE
[4] = sc, […], route mini-PUMP - SUBCUTANEOUS, dose 0.44 mg/Kg, dose level High, vehicle 100 % SALINE

Description: DrugMatrix - Regimen: Single

ClC(Cl)Br [BROMODICHLOROMETHANE]
ABSOLUTE EOSINOPHIL [1]: 150 CELLS/uL | ABSOLUTE LYMPHOCYTE [1]: 13279.83 CELLS/uL | ABSOLUTE MONOCYTE [1]: 654.5 CELLS/uL | ABSOLUTE SEGMENTED NEUTROPHIL [1]: 1565.67 CELLS/uL | BASOPHIL [1]: 0% | EOSINOPHIL [1]: 1% | ERYTHROCYTE COUNT [1]: 5.36 x10E6/uL | HEMATOCRIT [1]: 33.37% | HEMOGLOBIN [1]: 12.52 G/DL | LEUKOCYTE COUNT [1]: 15.65 x10E3/uL | LYMPHOCYTE [1]: 84.83% | MEAN CORPUSCULAR HEMOGLOBIN [1]: 23.4 pg | MEAN CORPUSCULAR HEMOGLOBIN CONCENTRATION [1]: 37.52 G/DL | MEAN CORPUSCULAR VOLUME [1]: 62.32 fL | MONOCYTE [1]: 4.17% | NEUTROPHIL [1]: 10% | NUCLEATED RED BLOOD CELLS [1]: 0 /100WBC | PLATELET COUNT [1]: 1020 x10E3/uL | ALANINE AMINOTRANSFERASE [1]: 49 u/L | ALBUMIN [1]: 4.47 G/DL | ALKALINE PHOSPHATASE [1]: 361.17 u/L | ASPARTATE AMINOTRANSFERASE [1]: 78.67 u/L | BLOOD UREA NITROGEN [1]: 13.17 mg/dL | CARBON DIOXIDE [1]: 29.67 mmol/L | CHLORIDE [1]: 100.83 MEQ/L | CHOLESTEROL [1]: 82.17 mg/dL | CREATININE [1]: 0.15 mg/dL | GLUCOSE [1]: 150.83 mg/dL | LACTATE DEHYDROGENASE [1]: 239.17 u/L | LIPASE [1]: 7.83 u/L | PHOSPHORUS [1]: 13.82 mg/dL | POTASSIUM [1]: 6.62 MEQ/L | SODIUM [1]: 144.25 MEQ/L | TOTAL BILIRUBIN [1]: 0.15 mg/dL | TOTAL PROTEIN [1]: 6.2 G/DL | URIC ACID [1]: 1.57 mg/dL | ABSOLUTE EOSINOPHIL [2]: 41.33 CELLS/uL | ABSOLUTE LYMPHOCYTE [2]: 10502.67 CELLS/uL | ABSOLUTE MONOCYTE [2]: 677 CELLS/uL | ABSOLUTE SEGMENTED NEUTROPHIL [2]: 1645.67 CELLS/uL | BASOPHIL [2]: 0% | EOSINOPHIL [2]: 0.33% | ERYTHROCYTE COUNT [2]: 6.1 x10E6/uL | HEMATOCRIT [2]: 36.03% | HEMOGLOBIN [2]: 13.4 G/DL | LEUKOCYTE COUNT [2]: 12.87 x10E3/uL | LYMPHOCYTE [2]: 81.67% | MEAN CORPUSCULAR HEMOGLOBIN [2]: 21.97 pg | MEAN CORPUSCULAR HEMOGLOBIN CONCENTRATION [2]: 37.2 G/DL | MEAN CORPUSCULAR VOLUME [2]: 59.07 fL | MONOCYTE [2]: 5.33% | NEUTROPHIL [2]: 12.67% | NUCLEATED RED BLOOD CELLS [2]: 0 /100WBC | PLATELET COUNT [2]: 1251 x10E3/uL | ALANINE AMINOTRANSFERASE [2]: 62 u/L | ALBUMIN [2]: 4.77 G/DL | ALKALINE PHOSPHATASE [2]: 394.67 u/L | ASPARTATE AMINOTRANSFERASE [2]: 108 u/L | BLOOD UREA NITROGEN [2]: 16.33 mg/dL | CARBON DIOXIDE [2]: 25 mmol/L | CHLORIDE [2]: 103 MEQ/L | CHOLESTEROL [2]: 68 mg/dL | CREATININE [2]: 0.18 mg/dL | GLUCOSE [2]: 128.67 mg/dL | LACTATE DEHYDROGENASE [2]: 323 u/L | LIPASE [2]: 10 u/L | PHOSPHORUS [2]: 11.43 mg/dL | POTASSIUM [2]: 5.73 MEQ/L | SODIUM [2]: 144.9 MEQ/L | TOTAL BILIRUBIN [2]: 0.17 mg/dL | TOTAL PROTEIN [2]: 6.5 G/DL | URIC ACID [2]: 1.7 mg/dL

CNC[C@H](O)c1cccc(O)c1 [PHENYLEPHRINE]
ABSOLUTE EOSINOPHIL [3]: 26.17 CELLS/uL | ABSOLUTE LYMPHOCYTE [3]: 10985.83 CELLS/uL | ABSOLUTE MONOCYTE [3]: 234.5 CELLS/uL | ABSOLUTE SEGMENTED NEUTROPHIL [3]: 1753.5 CELLS/uL | BASOPHIL [3]: 0% | EOSINOPHIL [3]: 0.17% | ERYTHROCYTE COUNT [3]: 5.64 x10E6/uL | HEMATOCRIT [3]: 34.52% | HEMOGLOBIN [3]: 12.68 G/DL | LEUKOCYTE COUNT [3]: 13 x10E3/uL | LYMPHOCYTE [3]: 84.5% | MEAN CORPUSCULAR HEMOGLOBIN [3]: 22.5 pg | MEAN CORPUSCULAR HEMOGLOBIN CONCENTRATION [3]: 36.78 G/DL | MEAN CORPUSCULAR VOLUME [3]: 61.18 fL | MONOCYTE [3]: 1.83% | NEUTROPHIL [3]: 13.5% | NUCLEATED RED BLOOD CELLS [3]: 0.17 /100WBC | PLATELET COUNT [3]: 679.17 x10E3/uL | ALANINE AMINOTRANSFERASE [3]: 42.67 u/L | ALBUMIN [3]: 3.77 G/DL | ALKALINE PHOSPHATASE [3]: 291.17 u/L | ASPARTATE AMINOTRANSFERASE [3]: 74.5 u/L | BLOOD UREA NITROGEN [3]: 15.33 mg/dL | CARBON DIOXIDE [3]: 30 mmol/L | CHLORIDE [3]: 100.83 MEQ/L | CHOLESTEROL [3]: 65.33 mg/dL | CREATININE [3]: 0.15 mg/dL | GLUCOSE [3]: 179.83 mg/dL | LACTATE DEHYDROGENASE [3]: 162.67 u/L | LIPASE [3]: 8.5 u/L | PHOSPHORUS [3]: 12.2 mg/dL | POTASSIUM [3]: 5.73 MEQ/L | SODIUM [3]: 144.7 MEQ/L | TOTAL BILIRUBIN [3]: 0.15 mg/dL | TOTAL PROTEIN [3]: 5.87 G/DL | URIC ACID [3]: 1.93 mg/dL | ABSOLUTE EOSINOPHIL [4]: 0 CELLS/uL | ABSOLUTE LYMPHOCYTE [4]: 12992 CELLS/uL | ABSOLUTE MONOCYTE [4]: 416.33 CELLS/uL | ABSOLUTE SEGMENTED NEUTROPHIL [4]: 3025 CELLS/uL | BASOPHIL [4]: 0% | EOSINOPHIL [4]: 0% | ERYTHROCYTE COUNT [4]: 6.07 x10E6/uL | HEMATOCRIT [4]: 36.37% | HEMOGLOBIN [4]: 13.2 G/DL | LEUKOCYTE COUNT [4]: 16.43 x10E3/uL | LYMPHOCYTE [4]: 79% | MEAN CORPUSCULAR HEMOGLOBIN [4]: 21.77 pg | MEAN CORPUSCULAR HEMOGLOBIN CONCENTRATION [4]: 36.27 G/DL | MEAN CORPUSCULAR VOLUME [4]: 59.93 fL | MONOCYTE [4]: 2.33% | NEUTROPHIL [4]: 18.67% | NUCLEATED RED BLOOD CELLS [4]: 0 /100WBC | PLATELET COUNT [4]: 1118.67 x10E3/uL | ALANINE AMINOTRANSFERASE [4]: 37.33 u/L | ALBUMIN [4]: 3.83 G/DL | ALKALINE PHOSPHATASE [4]: 259 u/L | ASPARTATE AMINOTRANSFERASE [4]: 64.33 u/L | BLOOD UREA NITROGEN [4]: 11.67 mg/dL | CARBON DIOXIDE [4]: 30 mmol/L | CHLORIDE [4]: 101.67 MEQ/L | CHOLESTEROL [4]: 75.67 mg/dL | CREATININE [4]: 0.16 mg/dL | GLUCOSE [4]: 171.33 mg/dL | LACTATE DEHYDROGENASE [4]: 133.67 u/L | LIPASE [4]: 9 u/L | PHOSPHORUS [4]: 14.13 mg/dL | POTASSIUM [4]: 6.67 MEQ/L | SODIUM [4]: 146.87 MEQ/L | TOTAL BILIRUBIN [4]: 0.1 mg/dL | TOTAL PROTEIN [4]: 5.97 G/DL | URIC ACID [4]: 3.6 mg/dL
